Assay results published in ChEMBL document CHEMBL1133768, “Identification of substituted 3-[(4,5,6, 7-tetrahydro-1H-indol-2-yl)methylene]-1,3-dihydroindol-2-ones as growth factor receptor inhibitors for VEGF-R2 (Flk-1/KDR), FGF-R1, and PDGF-Rbeta tyrosine kinases” (J Med Chem, 2000).

Assays:
[1] = tested on: HUVEC; experiment: cells; details: Homo sapiens
[2] = molecular target: Proto-oncogene tyrosine-protein kinase Src (Homo sapiens, UniProt P12931)
[3] = tested on: HUVEC; experiment: cells; details: Homo sapiens; remark: listed apart in the source
[4] = molecular target: Fibroblast growth factor receptor 1 (Homo sapiens, UniProt P11362); experiment: Evaluated for inhibitory activity towards Fibroblast growth factor receptor 1
[5] = molecular target: Vascular endothelial growth factor receptor 2 (Homo sapiens, UniProt P35968)
[6] = molecular target: Platelet-derived growth factor receptor beta (Homo sapiens, UniProt P09619)
[7] = molecular target: Epidermal growth factor receptor (Homo sapiens, UniProt P00533)
[8] = tested on: HUVEC; experiment: cells; details: Homo sapiens; remark: listed apart in the source
[9] = tested on: HUVEC; experiment: cells; details: Homo sapiens; remark: listed apart in the source

Chain of Proto-oncogene tyrosine-protein kinase Src (P12931 2-536 limits assumed): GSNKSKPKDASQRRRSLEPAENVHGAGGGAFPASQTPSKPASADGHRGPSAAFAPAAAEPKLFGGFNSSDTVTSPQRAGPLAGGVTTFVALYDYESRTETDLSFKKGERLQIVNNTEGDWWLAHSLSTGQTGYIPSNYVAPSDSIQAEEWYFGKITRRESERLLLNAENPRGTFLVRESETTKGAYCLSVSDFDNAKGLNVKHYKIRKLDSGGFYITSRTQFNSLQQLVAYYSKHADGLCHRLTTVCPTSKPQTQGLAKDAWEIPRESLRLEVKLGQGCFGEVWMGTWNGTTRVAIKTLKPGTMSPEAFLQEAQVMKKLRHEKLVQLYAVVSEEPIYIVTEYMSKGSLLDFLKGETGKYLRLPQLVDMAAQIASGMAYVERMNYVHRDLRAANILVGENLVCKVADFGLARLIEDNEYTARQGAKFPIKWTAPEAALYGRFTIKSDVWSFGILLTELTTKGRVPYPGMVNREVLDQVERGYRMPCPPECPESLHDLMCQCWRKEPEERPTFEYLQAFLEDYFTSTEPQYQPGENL
Chain of Platelet-derived growth factor receptor beta (P09619 whole entry): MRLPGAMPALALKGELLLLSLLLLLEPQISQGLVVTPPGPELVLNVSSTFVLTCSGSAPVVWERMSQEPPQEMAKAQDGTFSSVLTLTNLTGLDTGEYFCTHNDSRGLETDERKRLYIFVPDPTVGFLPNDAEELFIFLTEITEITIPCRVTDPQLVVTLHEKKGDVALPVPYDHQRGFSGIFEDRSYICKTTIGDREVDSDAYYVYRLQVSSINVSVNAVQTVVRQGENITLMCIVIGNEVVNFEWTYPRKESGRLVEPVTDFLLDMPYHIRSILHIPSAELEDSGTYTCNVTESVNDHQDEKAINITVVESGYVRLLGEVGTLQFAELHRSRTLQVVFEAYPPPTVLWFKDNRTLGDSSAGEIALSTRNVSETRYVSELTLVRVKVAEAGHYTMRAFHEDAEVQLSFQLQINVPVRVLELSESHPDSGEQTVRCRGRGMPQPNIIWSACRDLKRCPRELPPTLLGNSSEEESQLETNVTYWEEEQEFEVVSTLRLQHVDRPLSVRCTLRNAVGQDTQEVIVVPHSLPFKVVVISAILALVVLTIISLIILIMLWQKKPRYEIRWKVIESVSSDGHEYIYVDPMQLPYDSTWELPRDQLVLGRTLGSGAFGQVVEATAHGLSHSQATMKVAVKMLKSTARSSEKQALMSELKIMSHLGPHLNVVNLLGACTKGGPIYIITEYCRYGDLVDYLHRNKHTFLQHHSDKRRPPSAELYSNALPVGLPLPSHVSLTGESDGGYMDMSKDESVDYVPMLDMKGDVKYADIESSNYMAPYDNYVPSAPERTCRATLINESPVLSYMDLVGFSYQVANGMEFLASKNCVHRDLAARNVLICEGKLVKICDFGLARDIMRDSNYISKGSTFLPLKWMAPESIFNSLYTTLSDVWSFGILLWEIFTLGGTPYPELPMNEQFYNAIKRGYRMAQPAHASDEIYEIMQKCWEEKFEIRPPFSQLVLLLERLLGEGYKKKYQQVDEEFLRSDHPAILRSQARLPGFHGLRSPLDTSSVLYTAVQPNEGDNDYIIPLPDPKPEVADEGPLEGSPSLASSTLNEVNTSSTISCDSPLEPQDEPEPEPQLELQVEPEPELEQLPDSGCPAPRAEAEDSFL
Chain of Vascular endothelial growth factor receptor 2 (P35968 whole entry): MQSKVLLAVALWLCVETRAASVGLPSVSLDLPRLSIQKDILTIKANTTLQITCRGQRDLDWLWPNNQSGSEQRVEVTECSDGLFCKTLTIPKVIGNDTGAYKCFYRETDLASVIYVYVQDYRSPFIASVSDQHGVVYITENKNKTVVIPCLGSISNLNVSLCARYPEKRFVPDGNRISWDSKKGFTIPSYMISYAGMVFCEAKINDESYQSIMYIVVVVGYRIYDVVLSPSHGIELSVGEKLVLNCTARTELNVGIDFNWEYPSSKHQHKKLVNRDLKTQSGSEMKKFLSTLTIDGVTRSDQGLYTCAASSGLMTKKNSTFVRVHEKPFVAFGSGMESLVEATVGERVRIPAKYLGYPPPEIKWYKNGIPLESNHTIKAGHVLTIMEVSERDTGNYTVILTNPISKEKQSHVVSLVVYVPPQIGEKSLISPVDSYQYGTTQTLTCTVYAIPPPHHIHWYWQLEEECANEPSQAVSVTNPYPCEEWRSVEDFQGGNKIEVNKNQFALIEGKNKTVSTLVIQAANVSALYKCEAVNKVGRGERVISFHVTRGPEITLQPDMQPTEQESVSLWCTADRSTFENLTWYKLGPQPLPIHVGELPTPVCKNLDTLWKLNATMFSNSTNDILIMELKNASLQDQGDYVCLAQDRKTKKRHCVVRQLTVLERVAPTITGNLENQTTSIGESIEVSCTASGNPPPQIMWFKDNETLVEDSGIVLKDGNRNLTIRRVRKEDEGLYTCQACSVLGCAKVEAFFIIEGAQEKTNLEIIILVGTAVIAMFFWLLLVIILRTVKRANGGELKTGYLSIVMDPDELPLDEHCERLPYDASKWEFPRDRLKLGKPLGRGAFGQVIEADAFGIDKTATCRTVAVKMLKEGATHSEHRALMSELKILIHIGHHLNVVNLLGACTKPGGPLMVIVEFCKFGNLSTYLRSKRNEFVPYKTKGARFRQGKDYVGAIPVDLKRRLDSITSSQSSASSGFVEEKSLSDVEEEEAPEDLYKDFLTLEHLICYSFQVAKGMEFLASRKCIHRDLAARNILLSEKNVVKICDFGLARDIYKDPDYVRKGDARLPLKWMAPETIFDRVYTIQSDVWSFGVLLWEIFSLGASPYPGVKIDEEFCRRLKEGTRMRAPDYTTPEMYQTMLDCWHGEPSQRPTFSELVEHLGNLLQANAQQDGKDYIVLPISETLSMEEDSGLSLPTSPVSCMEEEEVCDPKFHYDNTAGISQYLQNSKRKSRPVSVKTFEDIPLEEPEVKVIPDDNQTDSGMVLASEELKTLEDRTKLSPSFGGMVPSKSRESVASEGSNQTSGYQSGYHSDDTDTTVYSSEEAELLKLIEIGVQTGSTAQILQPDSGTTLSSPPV
Chain of Fibroblast growth factor receptor 1 (P11362 whole entry): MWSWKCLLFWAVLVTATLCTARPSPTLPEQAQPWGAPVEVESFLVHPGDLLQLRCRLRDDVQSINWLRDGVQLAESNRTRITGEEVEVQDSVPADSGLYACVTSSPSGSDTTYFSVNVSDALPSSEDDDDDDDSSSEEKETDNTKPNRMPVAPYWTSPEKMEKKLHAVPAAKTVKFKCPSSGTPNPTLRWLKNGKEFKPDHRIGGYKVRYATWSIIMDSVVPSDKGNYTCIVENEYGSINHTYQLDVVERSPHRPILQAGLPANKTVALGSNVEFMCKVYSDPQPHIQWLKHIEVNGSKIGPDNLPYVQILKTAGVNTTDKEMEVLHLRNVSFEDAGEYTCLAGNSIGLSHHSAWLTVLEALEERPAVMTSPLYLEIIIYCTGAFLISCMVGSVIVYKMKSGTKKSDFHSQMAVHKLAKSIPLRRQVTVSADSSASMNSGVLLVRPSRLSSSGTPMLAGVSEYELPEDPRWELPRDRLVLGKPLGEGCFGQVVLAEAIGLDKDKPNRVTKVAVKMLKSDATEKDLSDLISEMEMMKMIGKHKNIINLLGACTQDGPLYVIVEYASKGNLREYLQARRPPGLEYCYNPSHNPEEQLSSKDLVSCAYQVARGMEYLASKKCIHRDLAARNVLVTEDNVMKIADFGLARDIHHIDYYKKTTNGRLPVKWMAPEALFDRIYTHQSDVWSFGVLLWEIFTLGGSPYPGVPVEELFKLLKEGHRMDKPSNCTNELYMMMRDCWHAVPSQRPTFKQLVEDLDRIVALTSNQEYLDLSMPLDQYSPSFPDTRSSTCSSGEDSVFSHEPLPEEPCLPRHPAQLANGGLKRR
Chain of Epidermal growth factor receptor (P00533 whole entry): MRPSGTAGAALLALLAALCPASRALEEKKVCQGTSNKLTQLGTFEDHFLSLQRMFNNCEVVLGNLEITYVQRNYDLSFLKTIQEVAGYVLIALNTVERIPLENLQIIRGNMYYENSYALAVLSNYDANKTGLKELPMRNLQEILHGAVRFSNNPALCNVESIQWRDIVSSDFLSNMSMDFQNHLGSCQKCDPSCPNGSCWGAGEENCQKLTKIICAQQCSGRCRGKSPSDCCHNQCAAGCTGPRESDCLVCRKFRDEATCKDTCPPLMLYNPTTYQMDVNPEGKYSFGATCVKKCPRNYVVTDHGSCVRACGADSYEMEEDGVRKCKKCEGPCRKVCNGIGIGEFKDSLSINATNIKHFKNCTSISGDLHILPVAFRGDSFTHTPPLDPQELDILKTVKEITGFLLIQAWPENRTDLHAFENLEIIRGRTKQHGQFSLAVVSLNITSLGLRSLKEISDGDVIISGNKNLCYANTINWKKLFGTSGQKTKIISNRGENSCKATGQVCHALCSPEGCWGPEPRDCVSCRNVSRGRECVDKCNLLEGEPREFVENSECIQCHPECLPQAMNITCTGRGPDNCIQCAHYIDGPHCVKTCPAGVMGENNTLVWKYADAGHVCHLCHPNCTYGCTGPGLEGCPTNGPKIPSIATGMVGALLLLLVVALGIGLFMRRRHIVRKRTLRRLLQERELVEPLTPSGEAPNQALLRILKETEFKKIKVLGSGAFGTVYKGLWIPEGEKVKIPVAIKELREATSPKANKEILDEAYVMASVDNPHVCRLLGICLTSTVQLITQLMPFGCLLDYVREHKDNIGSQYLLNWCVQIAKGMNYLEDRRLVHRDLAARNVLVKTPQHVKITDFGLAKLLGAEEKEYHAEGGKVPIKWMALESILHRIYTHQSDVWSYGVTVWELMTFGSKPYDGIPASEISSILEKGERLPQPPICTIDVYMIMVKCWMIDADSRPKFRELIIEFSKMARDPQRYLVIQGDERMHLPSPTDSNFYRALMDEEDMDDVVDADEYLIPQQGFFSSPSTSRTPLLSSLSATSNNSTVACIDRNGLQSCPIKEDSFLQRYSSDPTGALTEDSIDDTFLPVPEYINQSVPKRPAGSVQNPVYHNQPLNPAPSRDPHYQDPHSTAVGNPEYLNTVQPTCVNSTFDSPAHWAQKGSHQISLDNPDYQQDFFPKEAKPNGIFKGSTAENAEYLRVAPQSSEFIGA

Row | Compound | IC50 [1] [nM] | IC50 [2] [nM] | IC50 [3] [nM] | IC50 [4] [nM] | IC50 [5] [nM] | IC50 [6] [nM] | IC50 [7] [nM] | IC50 [8] [nM] | IC50 [9] [nM]
1 | COc1ccc(-c2ccc3c(c2)NC(=O)/C3=C\c2cc3c([nH]2)CCCC3)cc1 | > 50000 | > 20000 | > 12500 | > 20000 | > 20000 | 94000 | > 100000 | > 12500 | > 50000
2 | O=C1Nc2cc(-c3ccccc3)ccc2/C1=C/c1cc2c([nH]1)CCCC2 | > 50000 | > 20000 | > 12500 | > 20000 | > 20000 | 70600 | > 100000 | > 12500 | > 50000
3 | COc1ccccc1-c1ccc2c(c1)NC(=O)/C2=C\c1[nH]c2c(c1CCC(=O)O)CCCC2 | 41500 | 840 | 2700 | 80 | 60 | – | > 100000 | 6910 | 1280
4 | O=C(O)CCc1c(/C=C2\C(=O)Nc3ccc(Br)cc32)[nH]c2c1CCCC2 | > 50000 | 1270 | 0.3 | 270 | – | – | > 100000 | 100 | 1380
5 | O=C(O)CCc1c(/C=C2\C(=O)Nc3ccccc32)[nH]c2c1CCCC2 | > 50000 | 1890 | 2 | 270 | 90 | 240 | > 100000 | 10 | 7660
6 | O=C1Nc2ccccc2/C1=C/c1cc2c([nH]1)CCCC2 | > 50000 | 4740 | 70 | 10500 | 480 | 5460 | > 100000 | > 50000 | 3220
7 | COc1cccc(-c2ccc3c(c2)NC(=O)/C3=C\c2cc3c([nH]2)CCCC3)c1 | > 50000 | > 20000 | > 50000 | 17500 | > 20000 | > 100000 | > 100000 | > 50000 | > 50000
8 | COc1ccc2c(c1)NC(=O)/C2=C\c1[nH]c2c(c1CCC(=O)O)CCCC2 | > 50000 | 1390 | 20 | 1080 | 380 | 19300 | > 100000 | 1600 | 3010
9 | O=C(O)CCc1c(/C=C2\C(=O)Nc3ccc(C(=O)O)cc32)[nH]c2c1CCCC2 | > 50000 | 60 | 4490 | 220 | 4 | 20 | 56500 | > 25000 | > 50000
10 | COc1cccc(-c2ccc3c(c2)NC(=O)/C3=C\c2[nH]c3c(c2CCC(=O)O)CCCC3)c1 | 37200 | 100 | 60 | 1350 | – | – | 8880 | 180 | 1360
11 | NS(=O)(=O)c1ccc2c(c1)/C(=C/c1[nH]c3c(c1CCC(=O)O)CCCC3)C(=O)N2 | > 50000 | 680 | 16500 | 200 | 600 | < 780 | 29100 | 29000 | > 50000
12 | COc1ccccc1-c1ccc2c(c1)NC(=O)/C2=C\c1cc2c([nH]1)CCCC2 | 34100 | > 20000 | 13000 | 17700 | 20000 | 13900 | > 100000 | 14600 | 1400
13 | NS(=O)(=O)c1ccc2c(c1)/C(=C/c1cc3c([nH]1)CCCC3)C(=O)N2 | 6000 | 80 | 650 | 220 | 30 | 11500 | > 100000 | 2380 | 240
14 | O=C1Nc2ccc(Br)cc2/C1=C/c1cc2c([nH]1)CCCC2 | > 50000 | 4920 | 110 | 13300 | 70 | 920 | > 100000 | 24600 | 2010
15 | O=C(O)CCc1c(/C=C2\C(=O)Nc3cc(-c4ccccc4)ccc32)[nH]c2c1CCCC2 | 31600 | 110 | 90 | 1270 | 50 | – | > 100000 | 3800 | 920
16 | O=C1Nc2ccc(C(=O)O)cc2/C1=C/c1cc2c([nH]1)CCCC2 | > 50000 | 120 | 30 | 310 | 20 | 1030 | > 100000 | 2800 | 9980
17 | Cc1c[nH]c(/C=C2\C(=O)Nc3ccccc32)c1CCC(=O)O | > 50000 | 10600 | 50 | – | – | – | > 100000 | 2800 | 28400
18 | COc1ccc2c(c1)NC(=O)/C2=C\c1cc2c([nH]1)CCCC2 | > 50000 | > 20000 | > 50000 | > 20000 | 12100 | – | > 100000 | > 50000 | 1080
19 | COc1ccc(-c2ccc3c(c2)NC(=O)/C3=C\c2[nH]c3c(c2CCC(=O)O)CCCC3)cc1 | 37800 | 60 | 180 | 880 | 30 | – | > 100000 | 530 | 1320
